Target: T1, Dimer of Gag-Pol polyprotein [489-587] (Human immunodeficiency virus 1, UniProt P04585)
T1 construct: 489-587
Experiment: Protease Inhibition Assay
Description: Inhibition of HIV protease was measured by assay of the cleavage of a fluorescent peptide substrate. The fluorescent product (2-aminobenzoyl-Ala-Thr-His-Gln-Val-Tyr) was separated from the fluorescent substrate by anion-exchange HPLC on a Mono-Q anion-exchange column (Pharmacia), and fluorescence was monitored at an excitation wavelength of 330 nm and an emission wavelength of 430 nm. Ki values for inhibitor binding were estimated at fixed concentrations of substrate and inhibitor from fractional activity measurements by use of the modified Michaelis-Menten equation.

| SMILES | Ki [nM] |
| --- | --- |
| O=C1N[C@H](CCc2ccccc2)[C@@H](O)[C@@H](Cc2ccccc2)N1Cc1ccccc1 [(4R,5S,6R)-Tetrahydro-1,6-bis-(phenylmethyl)-5-hydroxy-4-(2-phenylethyl)-2(1H)-pyrimidinone] | 66 |
| N/C(=N\O)c1cccc(CN2C(=O)N[C@H](CCc3ccccc3)[C@@H](O)[C@H]2Cc2ccccc2)c1 [(4R,5R,6R)-Tetrahydro-1-(3-(N-hydroxycarboximidamide)phenylmethyl)-6-phenylmethyl-5-hydroxy-4-(2-phenylethyl)-2(1H)-pyrimidinone] | 0.24 |
